{"source": "paper PMC9636186", "about": "(Nature Communications, 2022)", "target": "T1, IBD (ItcR itaconate-binding domain) (Yersinia pseudotuberculosis, UniProt A0A0H3B558)", "T1 construct": "gene YPK_2265", "T1 sequence (A0A0H3B558 80-292 limits assumed)": "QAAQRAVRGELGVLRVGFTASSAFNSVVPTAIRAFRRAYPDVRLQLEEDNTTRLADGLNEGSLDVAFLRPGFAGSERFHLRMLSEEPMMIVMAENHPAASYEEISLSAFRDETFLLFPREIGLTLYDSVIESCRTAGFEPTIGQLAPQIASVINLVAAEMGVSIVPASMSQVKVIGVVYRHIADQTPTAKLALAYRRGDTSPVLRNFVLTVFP", "conditions": "protein:itaconate molar ratio 1:100, Bis-Tris pH 6.5, PEG300, 20 °C; SeMet form 7W06"}
{"smiles": "C=C(CC(=O)O)C(=O)O", "note": "[itaconate]", "values": [{"measurement": "structure of complex", "value": "crystal structure of IBD without or with itaconate binding was determined"}]}
